Values joined by “and” are separate entries in the source; they are usually repeats but may differ in a detail not shown here. Equal entries are not always repeated. “Also recorded” adds a separate entry of the source. d = 2'-deoxy (DNA); m = 2'-O-methyl
How the values were obtained:
SH-SY5Y cell line [1] = assay: MTT cytotoxicity assay on human cancer cell panel (Example 2); type: cell-based; details: 0.03-30 μM tested, 0.1% FBS
Protocol: Cell lines were maintained in growth medium with 10% of Fetal Bovine Serum (FBS) until the time of the experiments. Cells were sub-cultured by trypsinization and splitting the cell suspension into fresh flasks and supplementing with fresh culture medium. To perform the assay, the cells were trypsinized, neutralized with complete medium (10% FBS), centrifuged, counted with assistance of a hemocytometer, and plated with the respective media with 10% FBS. Cell lines were plated at a density of 1×10^4 cells per well, other than the SH-SY5Y cell line which was plated at a density of 2.5×10^4. […] After 24, 48, 72 and 96 hours of incubation, the effect of ASMO1 and controls on cytotoxicity of cells was determined by MTT assay.
Briefly, plates were taken out and 20 μl of 5 mg/ml of MTT 3-(4,5-dimethythiazol-2-yl)-2,5-diphenyl tetrazolium bromide solution was added to all the wells. […] The absorbance of each well was then read at 540 nm using Synergy HT microplate reader.
As shown in FIG. 13A-D, up to 72 hours ASMO1 APT20TTMG seems to have a cytotoxic effect from the concentration of […]. At 96 hours, the profile is a little different, and the concentration of 0.3 μM seems to start some effect. […] MTT assay was performed in 4 distinct times and graphs are represented as absorbance (540 nm). […]

SH-SY5Y cell line [2] = assay: MTT mitochondrial activity / cell viability; type: cell-based, Human; details: any concentration; 24 and 48 hours
Protocol: FIG. 22A-22B illustrates the evaluation of mitochondrial activity in SH-SY5Y cell line after incubation in ASMO1. MTT assay was performed after 24 hours (FIG. 22A) and 48 hours (FIG. 22B) of incubation.

[3] = test system: Human Glioblastoma Cancer (U-87MG) xenograft; assay: Histopathology of tumor samples with scoring; type: in vivo, athymic nude mice; set-up: key to Score: Grade: 1: I; 2: II; 3: III; 4: IV; key to Score: Connective tissue stroma: 1: Minimal Fibrosis; 2: Mild Fibrosis; 3: Moderate Fibrosis; 4: Prominent; key to Score: N:C ratio: 3: High; 2: Low to High; 1: Low; key to Score: Apoptosis / Score: Lipid content: 4: Minimal; 3: Mild; 2: Moderate; 1: Prominent
Source text: The fixed tissues were processed for routine paraffin embedding followed by sectioning (3-6 micron). The sections were stained with hematoxylin and eosin. The prepared slides were examined under microscope by the study pathologist to record histopathological findings in tumor samples, related to capsule formation, cell type, connective tissue stroma, apoptosis, necrosis, lipid content, nucleus-to-cytoplasmic (N:C) ratio, nuclei mitotic figures, tumor grade, and level of differentiation. Each histopathological finding and tumor volume were assigned a score ranging from 1 to 4 (Table 7). The sum of these scores for each sample was used to infer the tumor aggressiveness.

MAPT = MAPT expression by qPCR in SK-N-SH; type: cell-based; details: 0.5 μM; for reduction of MAPT expression: relative to Lipofectamine 3000 only
Protocol: FIG. 27A-27B illustrates MAPT expression and tau quantification obtained after 24, 48, 96 and 144 hours of incubation with ASMO1 (0.5 μM) in neuroblastoma cell line.
At all time points cells were rinsed once with PBS, before proceeding with RNA extraction using the RNeasy Plus Kit (Qiagen). RNA (0.1-1 μg) was converted to cDNA using the SuperScript IV First-Strand Synthesis System (Thermo Fisher), following manufacturer instructions. After RNA removal, 5-10 ng of cDNA were amplified by qPCR. The following Taqman probes (Thermo Fisher) were used: Total TAU (MAPT, Assay ID: Hs00902193_m1), GAPDH (GAPDH, Assay ID: Hs99999905_m1). Gene expression was analyzed using the Applied Biosystems QuantStudio™ 12K Flex Real-Time PCR System. Quantification of gene expression was performed using the comparative threshold cycle (2^-ΔΔCT) Livak method, relative to Lipofectamine 3000 only treated cells. Gene expression was normalized to the reference gene GAPDH.

[4] = Body weight in xenograft study; type: in vivo, athymic nude mice; details: 20 mg/kg i.v. q3d, 3 weeks
Protocol: Body weight and tumor size were measured weekly twice using digital caliper. At termination, blood was collected through retro-orbital route. Serum/plasma was separated and stored at deep freezer (−20° C.). Post blood collection, animals were humanely sacrificed by CO2 asphyxiation as per latest guidelines issued by CPCSEA. All the vital organ (brain, kidney, liver, lungs, heart) and tumor were dissected out. Vital organs were fixed in 10% NBF and stored. Tumor tissue was dissected out, weighed and portion of tumor tissue was fixed in 10% NBF and another portion is snap frozen and stored at deep freezer (−80° C.).
As shown in FIG. 34A-C, tumor fragments from the U-87MG cell line were implanted in the animals and once the tumor size reached ˜100 mm^3 animals were randomized into 3 experimental groups (G1, G2, and G3). G1: Vehicle, (G2) Reference Item Temozolomide, and (G3) APT20TTMG for a total of 22 days. (A) The tumor volume of the animals was measured twice/a week. (B) Animals were weighed throughout the experiment and the change in weight gain compared to pre-treatment weight was plotted. (C) After the euthanasia of the animals, the tumors were removed and weighed.

U87-MG cell line = assay: Mitochondrial membrane potential; type: cell-based, Human; details: 0.25 and 0.5 μM
[5] = individual animals, G3 APT20TTMG, G2 TMZ

With “APT20TTMG: engineered polynucleotide ASMO1, 24 nt, SEQ ID NO: 3 gtccactaacctttcaggccagcg; targeting moieties 5′-GTCCA-3′ and 5′-CG-3′, U1 snRNP recruiting moiety (GTCCACTAACCTTTCAGGCCAGCG; sugars from the 5' end m5 d14 m5, all phosphorothioate, methylation of C and T or U not given here)” the “concentration that starts some effect (MTT)” value (SH-SY5Y cell line [1]; 96 hours) was no less than 0.3 µM, the “concentration from which a cytotoxic effect is seen (MTT)” value (SH-SY5Y cell line [1]; up to 72 hours) was no less than 1 p M and the “cell viability (MTT)” value (SH-SY5Y cell line [2]) was “no change in cell viability”. The “total score of histopathological findings and tumor volume” value ([3]; G3 20 mg/kg i.v. vs G1 vehicle) was “statistically lower scores than G1 group”, the “histopathological findings compared to G1 (vehicle control)” value ([3]; G3 APT20TTMG 20 mg/kg i.v., G2 TMZ 5 mg/kg p.o.) was “less anaplastic features (lower grade) and cellular atypia, with fewer mitotic figures” and the “Histopathological findings: Cell Type” value ([3]; individual animals) was “Cell Type - Irregular/spindle type cells; also recorded: Cell Type - Polymorphic (i.e., Moderately differentiated”. The “Histopathological findings (whole sample)” value ([3]; individual animals, G3) was “Only diffused necrotic area was observed”, the “Score: Capsule” value ([3]; individual animals, G3) was 1 and the “Histopathological findings: Capsule” value ([3]; individual animals, G3 APT20TTMG 20 mg/kg i.v. q3dx7, G2 TMZ 5 mg/kg p.o. qdx21) was “Capsule - Present; also recorded: Capsule - Absent”. For the same substance, the “Histopathological findings: Apoptosis” value [3, 5] was “Apoptosis - Mild; also recorded: Apoptosis - Moderate”, the “Histopathological findings: Connective tissue stroma” value [3, 5] was “Connective tissue stroma - Moderate Fibrosis; also recorded: Connective tissue stroma - Mild Fibrosis” and the “Histopathological findings: Grade” value [3, 5] was “Grade- 2; also recorded: Grade- 1; also recorded: Grade- 3”. The “Histopathological findings: Lipid content” value [3, 5] was “Lipid content - Moderate; also recorded: Lipid content - Minimal; also recorded: Lipid content - Mild”, the “Histopathological findings: Mitotic figures” value [3, 5] was “Mitotic figures - Active (Few in number); also recorded: Mitotic figures - Active (Moderate in number); also recorded: Mitotic figures - Active (Large in number)” and the “Histopathological findings: N:C ratio” value [3, 5] was “N:C ratio - Low to High (Intermediate)”. For the same substance, the “Histopathological findings: Necrosis” value [3, 5] was “Necrosis - Prominent; also recorded: Necrosis - Moderate; also recorded: Necrosis - Mild”, the “Histopathological findings: Nuclei” value [3, 5] was “Nuclei - Hyperchromatic” and the “Histopathological findings: level of differentiation” value [3, 5] was “Moderately differentiated; also recorded: Well differentiated”. The “Score: Apoptosis” value [3, 5] was 3 (4×) and 2 (2×), the “Score: Connective tissue stroma” value [3, 5] was 3 (4×) and 2 (2×) and the “Score: Grade” value [3, 5] was 2 (4×) and 1 and 3. The “Score: Lipid content” value [3, 5] was 3 (3×) and 1 and 2 (2×), the “Score: N:C ratio” value [3, 5] was 1 (3×) and 2 (2×) and 3 and the “Score: Volume Tumor” value [3, 5] was 1 (<500) (2×) and 2 (500-1000) (3×) and 3 (1000-1500). For the same substance, the MAPT expression (MAPT; 24 hours) was “transient increase”, the “reduction of MAPT expression” value (MAPT; 96 h) was 82±1.2% and the “reduction of MAPT expression” value (MAPT; 144 h) was 74±4.3%. For the same substance, the “body weight of animals” value [4] was “gain weight throughout the experiment” and the “mitochondrial membrane potential labeling” value (U87-MG cell line) was “reducing the labeling”.

Reference: patent publication US20260085315A1, “POLYNUCLEOTIDE COMPOSITIONS AND METHODS FOR TREATMENT OF CANCER” (APTAH BIO, INC., priority 2023, published 2026)
